# Measurements published in US5733934A, “Antiarrythmic and cardioprotective substituted indenoylguanidines” (priority 1996, dated 1998).
# Tests used:
# anaesthetized rats = experiment: Ischemia-Induced Arrhythmias in Anaesthetized Rats; format: in vivo, rat (Male Charles Foster); set-up: key to VF Percent inhibition: NP: No protection
# Experimental: Ischemia-Induced Arrhythmias in Anaesthetized Rats:
# Male Charles Foster rats (220-260 g) were anaesthetized with Pentobarbitone sodium. Animals were artificially ventilated. Blood pressure was recorded through carotid artery. Thoracotomy was performed to expose the heart. Left Anterior Descending (LAD) coronary artery was identified. Test compound was administered either orally […] before anaesthesia (40 minutes before LAD artery ligation) or intravenously (5 minutes before LAD artery ligation). Resulting arrhythmias during the 15 minute period of ligation were recorded and analyzed according to Lambeth Convention (Walker M. J. A, et al, 1988, Cardiovascular Research, 22, 447-455). Antiarrhythmic effect of the test compound was expressed as dose dependent inhibition of the duration of Ventricular Tachycardia (VT) and Ventricular Fibrillation (VF).
# isolated rat heart = experiment: Reperfusion Induced Arrhythmias in the isolated rat heart; set-up: species or system rat (Charles Foster); details: LAD ligation 15 min, reperfusion 30 min, read-out: IC50 for VFD (50% reduction of duration of ventricular fibrillation)
# Experimental: Reperfusion Induced Arrhythmias in the isolated rat heart:
# […] Charles Foster rats of either sex (250-300 g) were sacrificed by stunning and exsanguination. Hearts were quickly removed and perfused according to Langendorffs method. Different concentrations of test compound were added into the perfusing medium. After 20 min of the equilibration period Left Anterior Descending (LAD) coronary artery was ligated. 15 minutes later the ligature was removed and reperfusion was allowed for next 30 minutes. During reperfusion period ECG was monitored. Duration of Ventricular Fibrillation (VFD) was the main parameter of assessment. Anti-arrhythmic activity was examined as the concentration of the test compound required to cause a 50% reduction of the VFD.
# anaesthetized rat = experiment: Myocardial Infarction in the Anaesthetized Rat; format: in vivo; details: intravenous 5 minutes before ligation; 1 h ligation, 1 h reperfusion
# Experimental: Myocardial Infarction in the Anaesthetized Rat:
# Rats were prepared as in earlier experiments. Compounds were administered intravenously 5 minutes before ligation. The experiment consisted of one hour of ligation followed by one hour of reperfusion. Myocardial infarction was assessed by double dye technique using Evans blue and 2,3,5-Triphenyltetrazolium to identify area at risk and area of infarction respectively. Extent of infarction was expressed as a percent of area at risk. (Simpson et al, 1987, Circulation Research, 60, 666-673)
# Na^+ /H^+ -exchanger = target: T1, Na^+ /H^+ -exchanger (Oryctolagus cuniculus, UniProt P23791); experiment: Sodium-Proton exchange inhibition in rabbit erythrocytes; format: cell-based, rabbit (Albino, New Zealand strain); details: 37° C., 1 hour, hyperosmolar sucrose buffer, 0.1 mM Ouabain, read-out: IC50 (concentration necessary to reduce the erythrocyte sodium content to 50%)
# T1 construct: Na^+ /H^+ -exchanger activity in the erythrocytes; endogenous in cells; host or cells: erythrocytes (whole blood from the ear vein) of cholesterol-fed New Zealand albino rabbits
# T1 sequence (P23791 whole entry): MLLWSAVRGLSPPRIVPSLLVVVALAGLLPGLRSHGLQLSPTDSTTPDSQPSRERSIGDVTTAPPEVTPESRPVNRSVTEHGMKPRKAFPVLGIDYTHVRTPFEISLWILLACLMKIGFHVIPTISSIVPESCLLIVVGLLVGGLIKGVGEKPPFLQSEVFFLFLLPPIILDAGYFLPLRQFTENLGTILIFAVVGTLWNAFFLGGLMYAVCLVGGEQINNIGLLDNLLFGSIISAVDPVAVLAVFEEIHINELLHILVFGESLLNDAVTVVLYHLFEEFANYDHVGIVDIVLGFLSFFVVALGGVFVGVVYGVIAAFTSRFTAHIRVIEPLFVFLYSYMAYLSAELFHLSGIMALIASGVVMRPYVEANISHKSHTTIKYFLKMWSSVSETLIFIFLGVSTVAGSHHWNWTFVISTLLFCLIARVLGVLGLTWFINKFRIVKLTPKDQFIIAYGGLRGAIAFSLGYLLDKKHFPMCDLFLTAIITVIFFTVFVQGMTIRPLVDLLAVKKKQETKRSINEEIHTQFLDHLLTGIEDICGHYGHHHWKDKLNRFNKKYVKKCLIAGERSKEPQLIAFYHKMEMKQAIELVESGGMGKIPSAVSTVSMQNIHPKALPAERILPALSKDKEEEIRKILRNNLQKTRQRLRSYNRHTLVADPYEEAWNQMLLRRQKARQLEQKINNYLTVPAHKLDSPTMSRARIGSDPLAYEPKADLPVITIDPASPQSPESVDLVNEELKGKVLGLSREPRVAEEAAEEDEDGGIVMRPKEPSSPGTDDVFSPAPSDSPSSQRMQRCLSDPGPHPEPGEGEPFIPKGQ
# Source text: Sodium-Proton exchange inhibition in rabbit erythrocytes:
# Albino rabbits of New Zealand strain were fed with 2% cholesterol diet for six weeks prior to collecting blood for the determination of Na^+ /H^+ -exchanger activity in the erythrocytes. Eypercholesteremia has been reported to increase the exchanger activity in the rabbit erythrocytes (Scholz et al, 1990; Arteriosklerose--Neue Aspekte aus Zellbiologie und Molekulargenetik, Epidemiologie und Klinik; Assmann, G, et al, Eds, Braunschweig, Wiesbaden, Vieweg, 296-302). Blood samples were collected from the ear vein and hematocrit was determined. About 200 μl of blood was incubated at 37° C. for 1 hour with hyperosmolar sucrose buffer containing 0.1 mM Ouabain in the presence and absence of test sample. After the incubation period, the reaction was stopped by addition of 5 ml of ice cold MgCl2 solution containing 0.1 mM Ouabain. The erythrocytes were washed three times with 5 ml quantities of MgCl2 solution. They were hemolyzed by the addition of 4 ml of distilled water and the sodium content of the hemolyzed was determined by flame-photometry. The activity of the test compound was determined by its ability to reduce the sodium content of the erythrocyte and was expressed as IC50 which is the concentration necessary to reduce the erythrocyte sodium content to 50%.
# rat hearts = details: isolated rat hearts; Eur. Heart J. 9 {supplement 1}: 167 (1988); cited from earlier work
# [1] = tested on: disturbances in cardiac rhythm; details: Circulation 79, 1257-1263 (1989); cited from earlier work
IC50 (Na^+ /H^+ -exchanger),SMILES,"VF Percent inhibition (anaesthetized rats; Intravenous, 0.1 mg/kg)","VT Percent inhibition (anaesthetized rats; Intravenous, 0.1 mg/kg)","VF Percent inhibition (anaesthetized rats; Intravenous, 0.3 mg/kg)","VT Percent inhibition (anaesthetized rats; Intravenous, 0.3 mg/kg)","VF Percent inhibition (anaesthetized rats; Intravenous, 1.0 mg/kg)","VT Percent inhibition (anaesthetized rats; Intravenous, 1.0 mg/kg)","VF Percent inhibition (anaesthetized rats; Oral, 1 mg/kg)","VT Percent inhibition (anaesthetized rats; Oral, 1 mg/kg)",IC50 (isolated rat heart),Protection against infarction (anaesthetized rat),suppression of artificially induced ventricular fibrillation (rat hearts),also measured
0.09 µM,CC1=C(C(=O)N=C(N)N)Cc2ccccc21 [Compound 2],100%,57 ± 17%,100%,90 ± 3%,100%,98 ± 1%,68%,26 ± 0%,0.025 µM,17%,,"VF Percent inhibition (anaesthetized rats; Oral, 3 mg/kg): 93%; VT Percent inhibition (anaesthetized rats; Oral, 3 mg/kg): 31 ± 21%; VF Percent inhibition (anaesthetized rats; Oral, 10 mg/kg): 00%; VT Percent inhibition (anaesthetized rats; Oral, 10 mg/kg): 73 ± 8%"
0.018 µM,CC1=C(C(=O)N=C(N)N)Cc2c(Cl)cccc21 [Compound 10],100%,20 ± 24%,100%,81 ± 8%,100%,97 ± 1%,100%,67 ± 11%,0.017 µM,68%,,"VF Percent inhibition (anaesthetized rats; Oral, 0.1 mg/kg): NP; VT Percent inhibition (anaesthetized rats; Oral, 0.1 mg/kg): 32 ± 12%; VF Percent inhibition (anaesthetized rats; Oral, 0.3 mg/kg): 84%; VT Percent inhibition (anaesthetized rats; Oral, 0.3 mg/kg): 69 ± 11%"
,N=C(N)NC(=O)c1nc(Cl)c(N)nc1N [amiloride],,,,,,,,,,,suppress an artificially induced ventricular fibrillation completely,antiarrhythmic effect [1]: only slight
,CCN(c1nc(N)c(C(=O)N=C(N)N)nc1Cl)C(C)C [ethylisopropylamiloride],,,,,,,,,,,even more potent than amiloride,
